Measurements as given in patent US11358940B2, “K-Ras modulators” (THE REGENTS OF THE UNIVERSITY OF CALIFORNIA, priority 2017, dated 2022).

Columns and labels:
[1] = target: T1, GDP loaded KRAS4b(1-169) H95C/C118S mutant (Homo sapiens, UniProt P01116, C118S/H95C); test: MALDI-TOF percentage labeling of C95, GDP-loaded protein; format: binding; details: for level of covalent labeling to C95 (percent of labeling), GDP, 3 h: 3 h incubation; for level of covalent labeling to C95 (percent of labeling), GDP, 6 h: 6 h incubation; for level of covalent labeling to C95 (percent of labeling), GDP, 24 h: 24 h incubation
T1 construct: loaded KRAS4b(1-169) H95C/C118S mutant
Protocol: (§1) Table 1 is a table summarizing levels of covalent labeling to C95 as analyzed by MALDI-TOF MS for a series of synthesized compounds. […] Both species, GDP or nonhydrolyzable analogue of GTP—GppNHp-loaded KRAS4b H95C/C118S, were then reacted with a panel of epoxides and analyzed by MALDI-TOF MS to assess level of covalent modification to C95 after 3 h, 6 h, or 24 h of incubation with the protein. All R isomers show enhanced activity compared to S isomers.
(§2) Example 18: Percentage Labeling Determination for Compounds Targeting KRAS4b Residue 95 by Matrix Assisted Laser Desorption Ionization-Time of Flight Mass Spectrometry (MALDI-TOF)
(§3) The assay uses four tool proteins: • Guanosine diphosphate (GDP) loaded KRAS4b(1-169) H95C/C118S mutant • 5′-Guanylyl imidodiphosphate (GppNHp) loaded KRAS4b(1-169) H95C/C118S mutant • GDP loaded KRAS4b(1-169) C118S mutant • GppNHp loaded KRAS4b(1-169) C118S mutant
(§4) 20 μM Solution of protein in 20 mM HEPES, 150 mM NaCl, 1 mM MgCl2, pH 7.3 buffer was prepared freshly before assay. 20 μl Aliquots of protein were dispensed on 384 well polypropylene plate, then tested compounds (0.8 μl, 10 mM in DMSO) were added to appropriate wells. For each reaction/assay three blank and three control samples were prepared by mixing 20 μl of protein solution with 0.8 μl DMSO or 10 mM standards (compounds 994566 and FB9). The wells content was carefully mixed by aspiration, then plate was sealed by adhesive cover, centrifuged at 2000 g for 1 minute and kept in dark at room temperature for 3, 6 (or 8) and 24 h.
(§5) Before each assay MALDI target (Bruker MPT 384 ground steel BC) was pre-treated by pipetting on each spot 1 μl of saturated sinapinic acid in acetonitrile (ACN).
(§6) After 24 h reaction, 2 μl of reaction mixtures were pipetted out into 20 μl MALDI matrix solution (saturated solution of sinapinic acid in 1:1 ACN:water solution containing 0.75% trifluoroacetic acid (TFA)) deposited on 384 well polypropylene plate. Resulting solution was mixed by aspiration, centrifuged at 2000 g for 1 minute, then 2 μl aliquots were dispensed on pre-treated MALDI target using Beckman Coulter Biomek FX^P 96/Span-8 Laboratory Automation Workstation. Finally, the MALDI target was dried under mild vacuum to produce spots with fine crystalline structure.
MALDI-TOF measurements were performed on Bruker Daltonics ultraflex III TOF-TOF mass spectrometer using linear mode and mass range from 5 to 45 kDa. Detector gain was set to ×9 (1734 V), sample rate to 1 GS/s, smart beam parameter set: 3_medium was used, and the laser frequency was 66.7 Hz. Spectra were automatically collected using custom AutoXecute method. Laser power was auto-adjusted using fuzzy control. The peak selection range was set to be between 19000 and 20200 Da. Peak evaluation uses half width parameter set to be smaller than 30 Da. Fuzzy control used Proteins/Oligonucleotides protocol with minimum half width ⅙ times above threshold. Up to 1500 shots were collected in 500 shot steps. Dynamic termination was implemented to finish data collection when peak intensity was reaching value of 1200 [a.u.].
Spectra were smoothed by SavitzkyGolay algorithm using 5 m/z width and three cycles. Centroid peak detection algorithm was used with signal to noise threshold set to 4, relative intensity threshold 2%, minimum intensity threshold 20 [a.u.], peak width 10 m/z and TopHat baseline subtraction. Peak intensity and area under the peak were evaluated and recorded for all peaks between 19248 Da and 20500 Da for H95/C118 mutant and 19285 Da and 20500 Da for C118 mutant respectively.
Percent of labeling was calculated using followed equation:
[formula] Similar results were obtained when peak area instead of peak height was used for calculations, however peak height method produced more reliable data in case of poor quality spectra.

[2] = target: T2, GppNHp loaded KRAS4b(1-169) H95C/C118S mutant (Homo sapiens, UniProt P01116, C118S/H95C); test: MALDI-TOF percentage labeling of C95, GppNHp-loaded protein; format: binding; details: for level of covalent labeling to C95 (percent of labeling), GppNHp, 3 h: 3 h incubation; for level of covalent labeling to C95 (percent of labeling), GppNHp, 6 h: 6 h incubation; for level of covalent labeling to C95 (percent of labeling), GppNHp, 24 h: 24 h incubation
T2 construct: loaded KRAS4b(1-169) H95C/C118S mutant
Protocol: as §1
150 to 300 μM solution of GDP loaded protein in KRAS buffer was prepared (20 mM HEPES, 150 mM NaCl, 1 mM MgCl2, 0.05 mM TCEP, pH 7.3). To this was added vigorously 1500×molar excess of 1 M ammonium sulfate in KRAS buffer, and the combination mixed gently by inverting tube. Next was prepared 250 mM solution of GppNHp (150 molar excess of GppNHp to protein; keep it on ice). To the protein was pipetted 10% of prepared GppNHp solution, then suspension of alkaline phosphatase from calf intestine on agarose was added (Sigma-Aldrich, P0726) to have 2 units of enzyme per each mg of protein. The reaction mixture was incubated at room temperature, rotating end-over for 1 h 30 min. The alkaline phosphatase was removed on agarose beads by filtering solution to a new vial using Millex-GP syringe filter. Remaining solution of GppNHp was added and incubated for additional 45 min. At the end of the exchange the protein was filtered again, placed on ice, and purified on NGC medium-pressure chromatography system (Bio-Rad). Five in-lane connected desalting columns (5×GE Healthcare HiTrap Desalting columns 5 ml, 17-1408-01) were used with isocratic elution of KRAS buffer at 4 ml/min. The protein elution was monitored at 280 nm. The concentration of final protein was evaluated by NanoDrop 2000 spectrophotometer (Thermo Fisher) using molar attenuation coefficient ε=19685 l·mol^−1·cm^−1. The quality of the protein was confirmed by MALDI and the exchange rate was assessed by HPLC based assay.
as §2, §3, §4, §5, §6
MALDI-TOF measurements were performed on Bruker Daltonics ultraflex III TOF-TOF mass spectrometer using linear mode and mass range from 5 to 45 kDa. […]

Row | Compound | level of covalent labeling to C95 (percent of labeling), GDP, 3 h [1] [%] | level of covalent labeling to C95 (percent of labeling), GDP, 6 h [1] [%] | level of covalent labeling to C95 (percent of labeling), GDP, 24 h [1] [%] | level of covalent labeling to C95 (percent of labeling), GppNHp, 3 h [2] [%] | level of covalent labeling to C95 (percent of labeling), GppNHp, 6 h [2] [%] | level of covalent labeling to C95 (percent of labeling), GppNHp, 24 h [2] [%]
1 | Cn1cc(C(=O)NCc2cn(C[C@@H]3CO3)nn2)c2cc(Br)ccc21 | 19 | 42 | 91 | 3 | 4 | 22
2 | CC(C)C[C@H](NC(=O)c1cn(C)c2ccccc12)C(=O)[C@@]1(C)CO1 | 0 | 0 | 0 | 0 | 0 | 0
3 | CC(C)Cc1ccc(C(C)C(=O)NCc2cn(C[C@@H]3CO3)nn2)cc1 (stereo partly drawn) | 36 | 73 | 98 | 0 | 2 | 17
4 | CC(=O)Oc1ccccc1C(=O)NCc1cn(C[C@@H]2CO2)nn1 | 5 | 12 | 45 | 2 | 3 | 14
5 | O=C(NCc1cn(C[C@H]2CO2)nn1)c1c[nH]c2ccccc12 | 0 | 5 | 31 | 0 | 2 | 11
6 | O=C(NCc1cn(C[C@@H]2CO2)nn1)c1c[nH]c2ccccc12 | 7 | 18 | 72 | 2 | 4 | 25
7 | COc1ccc(Cl)cc1C(=O)N1CCCC(C(=O)N[C@@H](CC(C)C)C(=O)[C@@]2(C)CO2)C1 (stereo partly drawn) | 0 | 0 | 0 | 0 | 0 | 0
8 | CC(C)C[C@H](NC(=O)c1cn(C)c2ccc(Br)cc12)C(=O)[C@@]1(C)CO1 | 0 | 0 | 0 | 0 | 0 | 0
9 | Cn1nc(C(=O)NCc2cn(C[C@@H]3CO3)nn2)c2ccccc21 [drawing 514] | 3 | 9 | 38 | 0 | 3 | 13
10 | COc1ccc(Cl)cc1C(=O)N[C@H]1COC1=O | 87 | 91 | 89 | 76 | 81 | 78
11 | Cc1ccc(S(=O)(=O)c2cn(CC3OC3(C)C)nn2)cc1 (stereo not drawn) | 0 | 0 | 0 | 0 | 0 | 0
12 | Cn1nc(C(=O)NCc2cn(C[C@H]3CO3)nn2)c2cc(Br)ccc21 | 3 | 10 | 49 | 0 | 2 | 10
13 | Cn1nc(C(=O)NCc2cn(C[C@@H]3CO3)nn2)c2cc(Br)ccc21 | 23 | 52 | 96 | 0 | 4 | 19
14 | Cn1nc(C(=O)NCc2cn(C[C@H]3CO3)nn2)c2ccccc21 | 0 | 0 | 0 | 0 | 0 | 0
